From PubChem BioAssay (NCI)
Values joined by “and” are separate entries in the source; they are usually repeats but may differ in a detail not shown here. Equal entries are not always repeated.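 Assay format: 96-well plates, 48-hour exposure. Definition used: TGI = concentration required for complete inhibition of growth.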

Key:
Test in all cases: NCI-60 cell line screen, 48 h
A549 NSCLC = test system: A549 NSCLC
HOP-92 NSCLC = test system: HOP-92 NSCLC
SF-295 CNS = test system: SF-295 CNS
NCI-H226 lung = test system: NCI-H226 lung
A498 renal = test system: A498 renal
M19-MEL melanoma = test system: M19-MEL melanoma
DMS 114 small cell lung = test system: DMS 114 small cell lung
LXFL 529 NSCLC = test system: LXFL 529 NSCLC
DLD-1 colon = test system: DLD-1 colon
KM20L2 colon = test system: KM20L2 colon

SMILES	TGI (A549 NSCLC) [µM]	TGI (HOP-92 NSCLC)	TGI (SF-295 CNS)	TGI (NCI-H226 lung) [µM]	TGI (A498 renal) [µM]	TGI (M19-MEL melanoma) [µM]	TGI (DMS 114 small cell lung) [µM]	TGI (LXFL 529 NSCLC) [µM]	TGI (DLD-1 colon) [µM]	TGI (KM20L2 colon) [µM]
C=CCN1CCC2(CC1)NC(=O)c1ccccc1O2	> 100	> 100 µM	> 100 µM	> 100	–	–	–	–	–	–
CCC1(O)CC(OC2CC(N(C)C)C(OC3CC(O)C(OC4CCC(=O)C(C)O4)C(C)O3)C(C)O2)c2c(O)c3c(c(O)c2C1C(=O)OC)C(=O)c1cccc(O)c1C3=O (stereo unspecified)	–	0.763 µM and 2.17 µM	0.121 µM and 0.33 µM	–	–	–	–	–	–	–
CCOC(=O)CC[C@H](N)C(=O)N[C@H](Cc1ccc(N(CCCl)CCCl)cc1)C(=O)OCC	> 100	3.24 µM	23 µM	> 47.7	74.5	–	–	–	–	–
O=P1(c2ccccc2)C2=CCC=CC2C(c2ccccc2)N1Cc1ccccc1 (stereo unspecified)	32.3	26.6 µM	28.8 µM	–	–	–	–	–	–	–
C=CC1(c2ccc(OC)cc2)OCCCO1	> 100	> 100 µM	> 100 µM	> 100	–	–	–	–	–	–
CN1C(=O)N(C)C2(CCN(CCCCCCF)CC2)C1=O	> 100	–	> 100 µM	> 100	–	–	–	–	–	–
COC(=O)[C@H](CCSC)NC(=O)c1ccc(CNC(=O)/C(C)=C/c2ccccc2)cc1	> 100	72.2 µM	> 100 µM	> 100	> 100	–	–	–	–	–
COC(=O)C(Cc1nc2ccccc2[nH]c1=O)C(=O)C(=O)Nc1cc(C(F)(F)F)ccc1Cl (stereo unspecified)	> 100	32.5 µM	71.2 µM	35.1	> 100	–	–	–	–	–
COc1ccccc1NCC(=O)Nn1c(C)nc2ccc(S(=O)(=O)Nc3ccccc3OC)cc2c1=O	> 100	> 100 µM	> 100 µM	> 100	–	–	–	–	–	–
CCCCCCCCCCCCCCCCP(=O)([O-])OCC[N+](C)(C)C	32.9	29 µM	25.8 µM	40.9	29.1	–	–	–	–	–
O=C1N[C@@H](COc2ccc(C=Nc3ccc(CCc4ccc(N=Cc5ccc(OC[C@@H]6COC(=O)N6)cc5)cc4)cc3)cc2)CO1	> 100	–	> 100 µM	> 100	> 100	–	–	–	–	–
COc1ccccc1N=C1SCCN1C(=S)Nc1ccc(S(=O)(=O)/N=C/N(C)C)cc1	> 100	> 100 µM	> 100 µM	> 100	> 100	–	–	–	–	–
CN(C)CCNc1nc2c(no[n+]2[O-])c2ccccc12	33.5	45.1 µM	81.9 µM	54.9	31.6	–	–	–	–	–
CC1CC[C@@]2(OC1)OC1C[C@H]3[C@@H]4CCC5CC(O)CC[C@]5(C)[C@H]4C/C(=N\N(C)C)[C@]3(C)C1[C@@H]2C (stereo partly specified)	> 100	> 100 µM	–	> 100	48.6	–	–	–	–	–
CCOP(=O)(OCC)C(C)(C)OC(=O)NC#N	> 100	> 100 µM	> 100 µM	> 100	–	–	–	–	–	–
CC(=O)O[C@H]1CC[C@H]2[C@@H]3CCC(C(C)=O)[C@H](C(=O)O)[C@H]3CC[C@]12C (stereo partly specified)	> 100	> 100 µM	> 100 µM	–	> 100	–	–	–	–	–
C/C=C1\CC(C(=O)OCC)CCCCCCCCCCC1=O (stereo unspecified)	> 100	–	> 100 µM	> 100	> 100	–	–	–	–	–

SMILES	TGI (A549 NSCLC) [µM]	TGI (HOP-92 NSCLC)	TGI (SF-295 CNS)	TGI (NCI-H226 lung) [µM]	TGI (A498 renal) [µM]	TGI (M19-MEL melanoma) [µM]	TGI (DMS 114 small cell lung) [µM]	TGI (LXFL 529 NSCLC) [µM]	TGI (DLD-1 colon) [µM]	TGI (KM20L2 colon) [µM]
CC(=O)N(CN1C(=O)CCC1C(=O)O)c1ccccc1Cl (stereo unspecified)	> 100	> 100 µM	> 100 µM	> 100	> 100	–	–	–	–	–
COc1ccc(C[C@@H]2OC3(C=CC(=O)C=C3)O[C@H]2Cc2ccc(OC)cc2)cc1	11.2	1.82 µM	7.89 µM	0.652	14.8	–	–	–	–	–
CC(/C=N/NC1=NCCCN1)=N\NC1=NCCCN1	> 100	> 100 µM	> 100 µM	> 100	–	–	–	–	–	–
COc1cccc(-c2cc(=O)c3cc(Cl)cnc3[nH]2)c1	31.6	63.9 µM	13 µM	1.57	> 100	–	–	–	–	–
COc1cc2c(cc1OCCCCCOc1cc3c(cc1OC)C(=O)N1CCC[C@H]1CN3)N=C[C@@H]1CCCN1C2=O	27	75.1 µM	34 µM	29.1	–	–	–	–	–	–
COc1ccccc1NS(=O)(=O)c1ccc2ncn(NS(=O)(=O)c3ccc(Cl)cc3)c(=O)c2c1	> 100	> 100 µM	> 100 µM	> 100	–	–	–	–	–	–
C=CC(Br)(CBr)CCC(Br)C(C)C (stereo unspecified)	28.5	23.2 µM	8.44 µM	30.8	32.8	–	–	–	–	–
C=CCC(SC)C1=C(C)C(=O)c2ccccc21 (stereo unspecified)	> 10	> 10 µM	> 10 µM	> 10	> 10	–	–	–	–	–
Cc1nc2c(=O)[nH]c3ccc(Cl)cc3c2o1	> 100	> 100 µM	> 100 µM	> 100	> 100	–	–	–	–	–
CCOP(=O)(OCC)C(Nc1ccc(F)cc1)c1ccccc1 (stereo unspecified)	> 100	> 100 µM	> 100 µM	> 100	> 100	–	–	–	–	–
COP(C)(=O)C(Cc1c[nH]c2ccccc12)NC(=O)OCc1ccccc1 (stereo unspecified)	> 100	> 100 µM	> 100 µM	> 100	> 100	–	–	–	–	–
CC(=O)CC(=O)/C=C/c1cccs1	> 100	–	> 100 µM	> 100	> 100	> 100	> 100	> 100	> 100	> 100
CC(=O)OCC1OC(N2C(S)=C(C#N)C(c3ccco3)C(C(C)=O)=C2c2ccccc2)C(OC(C)=O)C(OC(C)=O)C1OC(C)=O (stereo unspecified)	> 100	95.2 µM	94 µM	> 100	> 100	–	–	–	–	–
CCCC1(N)CC(OC)OC(C)C1O (stereo unspecified)	> 100	> 100 µM	> 100 µM	> 100	> 100	–	–	–	–	–
OC(CN1CCCCC1)c1ccc(/C=C/c2ccc(Cl)cc2)cc1 (stereo unspecified)	> 100	> 100 µM	> 100 µM	> 100	> 100	–	–	–	–	–
Cc1sc2nc3n(c(=O)c2c1C)N=C(c1ccc([N+](=O)[O-])cc1)CS3	> 100	> 100 µM	> 100 µM	> 100	> 100	–	–	–	–	–
